One assay relates to mice (C57BL/6N). In words: Forced swim test (FST), pharmacological manipulation of KCNQ. In kind it is in vivo, mouse. The settings on record: XE991 1 and 3 mg/kg BW in combination with saline (FIG. 23A). The protocol:
C57BL/6N and CD-1 (ICR) male mice aged 10 weeks old were used in these experiments. Ketamine hydrochloride (Ketaset, Zoetis, Germany) was diluted in 0.9% NaCl solution (saline) and administered i.p at 1, 5 or 10 mg/kg BW, depending on the experiment design. The KNCQ inhibitor, XE991 (Alomone labs; Cat #: X-100) was diluted in 5% DMSO and administered i.p at 1 or 3 mg/kg BW. The KCNQ activator, Retigabine (Alomone labs; Cat #: R-100), was diluted in 5% DMSO and administered i.p at 1 or 5 mg/kg BW. As control, mice were injected with a DMSO-saline solution (5% DMSO). For all experiments, mice were tested 30 minutes after injection in the FST or over a period of 36 hours after injection in the social boxes.
Previous studies in rodents have shown that KCNQ function can be regulated with highly-specific agonists and antagonists [V. Barrese et al., Annu Rev Pharmacol Toxicol (2018) 58: 625-648]. To further explore the KCNQ channel as a potential therapeutic target of ketamine, it was examined whether pharmacological inhibition of KCNQ alone or in combination with ketamine had any effects on behavior. To accomplish this, a new cohort of mice received two injections with a combination of drugs. […] To assess the effects of ketamine, XE991 (KCNQ inhibitor), and its combination, these mice were exposed to a FST (FIG. 7A, left). […] The inventors then sought to test whether the effects of ketamine could be mimicked, increased or amplified using retigabine, also known as ezogabine, a selective KCNQ (Kcnq2/3) channel activator. Similarly to the previous experiment, mice were treated with saline, (R,S)-ketamine (10 mg/kg BW), or ketamine in combination with two different concentrations of retigabine (1 and 5 mg/kg BW) (FIG. 7A, right).
Next, it was examined whether retigabine could increase the sustained antidepressant-like effects produced by a single injection of ketamine in mice. Accordingly, a new cohort of mice were treated with a single dose of saline, ketamine, or ketamine in combination with retigabine (1 mg/kg) and antidepressant-like behaviors were assessed using the FST, 5—and 7-days post-injection (FIG. 8A). […] Next, as a potential therapeutic strategy for major depressive disorder (MDD), the synergistic effects of ketamine and retigabine was further investigated by testing whether or not retigabine can increase the antidepressant-like effects produced by ketamine in mice. […] Next, it was tested whether retigabine can produce similar synergistic effects in combination with traditional antidepressants. […] Lastly, using a new cohort of Nex-Cre-Ai9 mice, it was tested whether the adjunctive treatment of ketamine with retigabine, or escitalopram alone, could modify the expression of Kcnq2 mRNA in FACS sorted cells from the vHipp (FIG. 8F).

The subject of assay [1] is Kcnq2 mRNA in glutamatergic neurons of the vHipp. Put plainly: qPCR mRNA levels in FACS-sorted glutamatergic neurons (Ai9+/tdTomato+) and remaining cells (Ai9-/tdTomato-) of Nex-Cre-Ai9 mice. In kind it is in vivo, mouse. As to conditions: glutamatergic neurons (tdTomato+) of the vHipp, two days after treatment; ketamine 10, escitalopram 10, retigabine 1 mg/kg/BW. The text has this:
Conditional transgenic mice expressing tdTomato in glutamatergic neurons of the forebrain (Nex-Cre;Ai9) were generated by crossing homozygous Nex-Cre mice [described in S. Goebbels et al., Genesis (2006) 44: 611-621] with homozygous Ai9 mice [Gt(ROSA)26Sortm9(CAG-tdTomato)Hze] [described in L. Madisen et al., Nat Neurosci (2010) 13: 133-140].
In order to further investigate these findings, a conditional reporter mouse line (Nex-Cre-Ai9) was generated where most glutamatergic neurons of the forebrain, including the hippocampus, are fluorescently labeled by tdTomato (Ai9) except for neurons in the dentate gyrus where Neurod6, the promoter used to target glutamatergic neurons driving Cre expression, is not expressed (FIG. 12) [J. Hartmann et al., Mol Psychiatry (2017) 22: 466-475]. Following the same paradigm used in the original cohort, mice were group-housed and injected with (R,S)-ketamine (10 mg/kg BW) or a saline vehicle control. The vHipp of these mice was dissected […] later (i.e. 2 days). Single-cell suspensions were prepared and individual cells were sorted using fluorescence activated cell sorting (FACS) (FIG. 2A) into two separate pools of cells from each mouse. One pool contained glutamatergic neurons (Ai9+) and a second contained all remaining cell types of the vHipp (Ai9-) (FIG. 2A and FIGS. 13A-C). […] These two separate pools of cells were then used to validate the scRNA-seq findings in glutamatergic neurons at the population level using quantitative real-time polymerase chain reaction (qPCR).
Next, it was tested whether retigabine can produce similar synergistic effects in combination with traditional antidepressants.

In assay [2] the test system is KCNQ channel (KCNQ2/3, M-current). In words: In vitro whole-cell voltage-clamp recording of M-current (IM) density in primary hippocampal neurons. In kind it is cell-based, mouse. As to conditions: HNKet 10 μM, 24 hours vs saline.
For assay [3], the system named is primary hippocampal neurons. Put plainly: qPCR mRNA expression in primary hippocampal neurons treated with ketamine or HNKet. In kind it is cell-based, mouse. The settings on record: 10 μM. The protocol: (§1) Primary hippocampal neurons were generated from E16.5 embryos using a standard primary neuron cell culture protocol previously described [K. G. Schraut et al., Eur JNeurosci (2021) 53: 390-401]. Briefly, dissected hippocampi were harvested in ice-cold dissection medium (HBSS, 7 mM HEPES, 2 mM L-glutamine, 500 U/ml penicillin-streptomycin, all Thermo Fisher Scientific). The tissue was incubated for 10 minutes in 0.25% Trypsin-EDTA with 8 mM HEPES (Thermo Fisher Scientific) in a water bath at 37° C. Tissue was washed three times with serum medium (DMEM, 10% FBS, Thermo Fisher Scientific). The cells were dissociated by titration using glass Pasteur pipets 10 in serum medium and filtered with a 70 tm cell strainer (Corning). Cell culture plates were coated overnight with 0.05 mg/ml poly-D-lysine mol wt 70,000-150,000 (Sigma Aldrich) in 0.15 M borate buffer (pH=8.5). Cells were seeded in 24-well plates at a density of 5×10^4 cells in 1 ml growth medium (Neurobasal A medium, 1 x B27 supplement, 0.25×GlutaMAX, all Thermo Fisher Scientific) per well. All cultures were kept in a humidified incubator at 37° C. and 5% CO2. Growth medium was renewed after 7 days of culture. For all experiments, mature twenty-one-day old primary neuronal cultures were used.
Primary hippocampal neurons were generated from E16.5 embryos and cultured for 21 days, as described above (see Primary Cell Culture). For experiment 1 (FIGS. 3A-K), neurons were treated with a saline solution, (R,S)-ketamine (10 μM) (Ketaset, Zoetis, Germany) or (2R,6R)-HNKet (10 μM) (Sigma, Cat #SML1873-25MG) for 0, 2, 12, 24 or 48 hours and compared to untreated controls. For experiment 2 (FIGS. 6A-D), neurons were stimulated with either a saline solution, (2R,6R)-HNKet (10 μM), or a combination of (2R,6R)-HNKet (10 μM) plus nifedipine (10 μM) (Tocris Bioscience, Cat #1075), W-7 hydrochloride (10 μM) (Tocris, Cat #0369), or cyclosporine-A (1 μM) (Tocris, Cat #1101) for 30 minutes, 1, 2, or 6 hours, and compared to untreated controls.
Ketamine treatment regulates Kcnq2 in primary hippocampal neurons To corroborate the previous findings in glutamatergic neurons, it was next examined whether treatment of primary hippocampal neurons with either (R,S)-ketamine or its active metabolite, (2R,6R)-hydroxynorketamine (HNKet), could modify the mRNA expression of the 8 genes tested earlier in glutamatergic neurons. Mouse primary hippocampal neurons are mostly made up of glutamatergic neurons and therefore make a very good model system to further validate the previous in vivo findings. […]
For orientation: Quantitative PCR measures a nucleic acid by following its amplification.

The test system of assay [4] is Kcnq2 mRNA in primary hippocampal neurons. In words: Kcnq2 mRNA in primary hippocampal neurons stimulated with HNKet alone or plus nifedipine, W-7 or cyclosporine-A. In kind it is cell-based, mouse. The protocol: as §1
Primary hippocampal neurons were generated from E16.5 embryos and cultured for 21 days, as described above (see Primary Cell Culture). For experiment 1 (FIGS. 3A-K), neurons were treated with a saline solution, (R,S)-ketamine (10 μM) (Ketaset, Zoetis, Germany) or (2R,6R)-HNKet (10 μM) (Sigma, Cat #SML1873-25MG) for 0, 2, 12, 24 or 48 hours and compared to untreated controls. For experiment 2 (FIGS. 6A-D), neurons were stimulated with either a saline solution, (2R,6R)-HNKet (10 μM), or a combination of (2R,6R)-HNKet (10 μM) plus nifedipine (10 μM) (Tocris Bioscience, Cat #1075), W-7 hydrochloride (10 μM) (Tocris, Cat #0369), or cyclosporine-A (1 μM) (Tocris, Cat #1101) for 30 minutes, 1, 2, or 6 hours, and compared to untreated controls. […]

In the case of `O=C1c2ccccc2C(Cc2ccncc2)(Cc2ccncc2)c2ccccc21` [XE991, 10,10-bis(4-pirinydilmethyl)-9(10H)−antracenone], the “immobility time during the FST” value in the assay with mice (C57BL/6N) is “No significant differences”.

In the case of `CN(C)CCC[C@@]1(c2ccc(F)cc2)OCc2cc(C#N)ccc21` [escitalopram], the “Kcnq2 mRNA” value in assay [1] was “No significant changes”.

As to `N[C@@]1(c2ccccc2Cl)CCC[C@@H](O)C1=O` [HNKet, (2R,6R)-hydroxynorketamine], the IM current density entry in assay [2] is “significant increase in IM current density”. Besides, in assay [3] (2, 12, 24 or 48 hours), the “mRNA expression of Hspa8, Snap25, Hsp90ab1, Ndufa4, Ilf2, E2f1 and Kcnq2” value is on record as “significant changes”. Besides, the “Kcnq2 mRNA expression” value in assay [3] (2, 12, 24 or 48 hours vs untreated and saline controls) is on record as “significant upregulation at all time points tested”. In addition, the “Kcnq2 mRNA” value in assay [4] (1, 2 and 6 hours of stimulation, HNKet 10 μM) is on record as “significant upregulation of Kcnq2 mRNA”. Besides, in assay [4] (30 minutes of treatment, HNKet 10 μM), the “expression of Kcnq2” value is on record as “No significant differences”.

Turning to `Cl.NCCCCCCNS(=O)(=O)c1cccc2c(Cl)cccc12` [W-7, W-7 hydrochloride], the “effect of inhibitor on the HNKet-induced upregulation of Kcnq2 mRNA” value in assay [4] (combined with HNKet 10 μM, nifedipine 10 μM, W-7 10 μM, cyclosporine-A 1 μM, 1, 2, 6 hours) was “eliminated the upregulation of Kcnq2”.

Values taken from patent US20240065988A1, “COMBINED USE OF KETAMINE AND RETIGABINE (EZOGABINE) FOR THE TREATMENT OF PSYCHIATRIC DISORDERS” (Yeda Research and Development Co. Ltd., priority 2021, published 2024).
